In test [1] the target is T1, Protease (Human immunodeficiency virus 1, UniProt Q9YQ12). The test can be described thus: Binding affinity to Human immunodeficiency virus 1 protease by SPR biosensor interaction analysis at pH 7.4. On the technique in general: SPR reads the build-up and loss of mass on a sensor chip optically.
In test [2] the target is T1, Protease. The test can be described thus: Binding affinity to Human immunodeficiency virus 1 protease by SPR biosensor interaction analysis at pH 5.1.
Test [3] concerns the target T1, Protease. The test can be described thus: Binding affinity to Human immunodeficiency virus 1 protease by SPR biosensor interaction analysis at pH 4.1.

Kd data for five compounds are collected here from ChEMBL document CHEMBL2057160, “Experimental and 'in silico' analysis of the effect of pH on HIV-1 protease inhibitor affinity: implications for the charge state of the protein ionogenic groups” (Bioorg Med Chem, 2012).

As a reminder, the Kd is the constant that tells how readily two partners part at equilibrium. Lower therefore signals a tighter complex.

T1 sequence (Q9YQ12 whole entry): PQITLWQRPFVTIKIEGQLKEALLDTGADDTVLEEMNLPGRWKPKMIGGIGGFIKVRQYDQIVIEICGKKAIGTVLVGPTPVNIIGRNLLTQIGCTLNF

On to `CNC(=O)[C@@H](NC(=O)[C@H](OCc1ccccc1)[C@H](O)[C@@H](O)[C@@H](OCc1ccccc1)C(=O)N[C@H](C(=O)NC)C(C)C)C(C)C`, for which the dissociation constant Kd was 10.8 nM on Protease [1], 3 nM on Protease [2] and 2.97 nM at Protease [3].
`O=C1N(Cc2ccc(CO)cc2)[C@H](COc2ccccc2)[C@H](O)[C@@H](O)[C@@H](COc2ccccc2)N1Cc1ccc(CO)cc1`: the Kd at Protease [1] came out at 6.95 nM; at Protease [2] it was 1.84 nM; on Protease [3], 1.83 nM.
Take `O=C(N[C@H]1c2ccccc2C[C@H]1O)[C@H](OCc1ccccc1)[C@H](O)[C@@H](O)[C@@H](OCc1ccccc1)C(=O)N[C@H]1c2ccccc2C[C@H]1O`: the equilibrium dissociation constant (Kd) on Protease [1] amounted to 13.9 nM; on Protease [2], 1 nM; on Protease [3] it was 1.14 nM.
For `Cc1c(O)cccc1C(=O)N[C@@H](CSc1ccccc1)[C@H](O)CN1C[C@H]2CCCC[C@H]2C[C@H]1C(=O)NC(C)(C)C` the same measures were 3.4 nM, 2.99 nM and 37.6 nM.
For `CC(=O)N[C@H](C(=O)N[C@H](C(=O)N[C@@H](CC(C)C)[C@@H](O)CC(=O)N[C@@H](C)C(=O)N[C@@H](CC(C)C)[C@@H](O)CC(=O)O)C(C)C)C(C)C` [ACETYLPEPSTATIN] the same measures were 8150 nM, 759 nM and 208 nM.
